Source: patent US20160279110A1, “COMPOSITIONS AND METHODS FOR TREATING CANCER” (UNIVERSITY OF ROCHESTER, priority 2015, published 2016)

How the values were obtained:
caspases = experiment: Caspase inhibitor pre-incubation before CHX, UPF1 CP western blot in HEK293T cells; type: cell-based, human; conditions: inhibitor preincubated 4 h, then CHX 300 μg/ml
Experimental: FIG. 3b is a diagram of N-terminally FLAG-tagged human UPF1, showing its reactivity with anti(α)-UPF1(1-416). CH, cysteine-t histidine-rich region. […] Blots are representative of two independent experiments.
(§1) Cells were lysed, and protein was isolated using hypotonic buffer that consists of 10 mM Tris-C1, pH 7.4, 10 mM NaCl, 2 mM EDTA, 0.5% Triton X-100, 2 mM benzamidine, 1 mM PMSF, NEM (50 μg/mL), 1× phosphatase inhibitor cocktail (Roche), and 1× protease inhibitor cocktail (Roche; Basel, Switzerland). After 10 minutes of incubation at 4° C., NaCl was added to 150 mM, and lysates were cleared by centrifugation. […] Immunoreactivity was assessed using SuperSignal West Pico or Femto (Pierce Biotechnology; Waltham, Mass.). […]

UPF1 [1] = experiment: Western blot of UPF1 CP generation in HeLa cells; type: cell-based, human
Experimental: […] At least two apoptotic inducers were used for each cell line, and at least two cell lines were tested with each apoptotic inducer.
UPF1 CP may result from cleavage of endogenous UPF1 or the transfected construct, but the use of anti-FLAG allows unambiguous assignment of UPF1-FLAG CP as derived from MYC-UPF1-FLAG. α, anti; h, hour(s). […] To serve as molecular weight standards for UPF1 CP, lysates of MCF7 cells transiently expressing a UPF1-FLAG protein encompassing the residues specified were also analyzed. […] The D37 cleavage site encompassing P4-P1 residues is boxed. […] Immunoblots are representative of at least 2 independent experiments.
as §1, with “Switzerland).” for “Switzerland). After 10 minutes of incubation at 4° C., NaCl was added to 150 mM, and lysates were cleared by centrifugation.”
Inventories of in vivo apoptotic cleavage events indicate that cleavage specificity in living cells is determined chiefly by an aspartic acid residue at the P1 position; P4-P2 residues contribute far less to specificity in cells than is indicated by in vitro-derived peptide-based substrate profiles. […]

UPF1 [2] = experiment: Western blot of UPF1 CP generation in C2C12 myoblasts; type: cell-based, mouse; conditions: C2C12, CHX 100 or 300 μg/ml, ETP 100 μM 5 h pulse
Experimental: CHX concentrations were 100 or 300 μg ml^−1, and a 5 h pulse of ETP was used at 100 μM. At least two apoptotic inducers were used for each cell line, and at least two cell lines were tested with each apoptotic inducer.
Cells were lysed, and protein was isolated using hypotonic buffer that consists of 10 mM Tris-C1, pH 7.4, 10 mM NaCl, 2 mM EDTA, 0.5% Triton X-100, 2 mM benzamidine, 1 mM PMSF, NEM (50 μg/mL), 1× phosphatase inhibitor cocktail (Roche), and 1× protease inhibitor cocktail (Roche; Basel, Switzerland). After 10 minutes of incubation at 4° C., NaCl was added to 150 mM, and lysates were cleared by centrifugation. […] Immunoreactivity was assessed using SuperSignal West Pico or Femto (Pierce Biotechnology; Waltham, Mass.).

UPF1 [3] = experiment: Western blot of UPF1 CP generation in HEK293T cells; type: cell-based, human; conditions: 300 μg/mL CHX or 1 μM staurosporine
Experimental: (§2) FIG. 10b is essentially as in a, but using lysates of HEK293T cells exposed to 1 μM staurosporine. FIG. 10c is essentially as in a, but using lysates of human Daudi B lymphoblasts exposed to 40 ng/mL TNF-α or 2 μg/mL doxorubicin. FIG. 10d is essentially as in a, but using lysates of human Jurkat T cells exposed to 1 μM staurosporine. FIG. 10e is essentially as in a, but using lysates of canine MDCK cells exposed to 2 μM staurosporine. FIG. 10f is essentially as in a, but using lysates of bovine MDBK cells exposed to 2 μM staurosporine. FIG. 10g is essentially as in a, but using lysates of Chinese Hamster Ovary (CHO) cells exposed to 2 μM staurosporine. FIG. 10h is essentially as in a, but using lysates of African green monkey COS-7 cells exposed to 2 μM staurosporine or 2 μg/mL doxorubicin. At least two apoptotic inducers were used for each cell line, and at least two cell lines were tested with each apoptotic inducer.
as §1, with “Switzerland).” for “Switzerland). After 10 minutes of incubation at 4° C., NaCl was added to 150 mM, and lysates were cleared by centrifugation.”

UPF1 [4] = experiment: Western blot of UPF1 CP generation in Jurkat T cells; type: cell-based, human; conditions: 1 μM staurosporine
Experimental: as §2
as §1, with “Switzerland).” for “Switzerland). After 10 minutes of incubation at 4° C., NaCl was added to 150 mM, and lysates were cleared by centrifugation.”

UPF1 [5] = experiment: Western blot of UPF1 CP generation in MDCK cells; type: cell-based, canine; conditions: 2 μM staurosporine
Experimental: as §2
(§3) Cells were lysed, and protein was isolated using hypotonic buffer that consists of 10 mM Tris-C1, pH 7.4, 10 mM NaCl, 2 mM EDTA, 0.5% Triton X-100, 2 mM benzamidine, 1 mM PMSF, NEM (50 μg/mL), 1× phosphatase inhibitor cocktail (Roche), and 1× protease inhibitor cocktail (Roche; Basel, Switzerland). […] Immunoreactivity was assessed using SuperSignal West Pico or Femto (Pierce Biotechnology; Waltham, Mass.).

UPF1 [6] = experiment: Western blot of UPF1 CP generation in MDBK cells; type: cell-based, bovine; conditions: 2 μM staurosporine
Experimental: as §2, §3

UPF1 [7] = experiment: Western blot of UPF1 CP generation in CHO cells; type: cell-based, Chinese hamster; conditions: 2 μM staurosporine
Experimental: as §2, §3

UPF1 [8] = experiment: Western blot of UPF1 CP generation in COS-7 cells; type: cell-based, African green monkey; conditions: COS-7, 2 μM staurosporine or 2 μg/mL doxorubicin
Experimental: as §2, §3

UPF1 [9] = experiment: Western blot of UPF1 CP generation in Daudi B lymphoblasts; type: cell-based, human; conditions: 40 ng/mL TNF-α or 2 μg/mL doxorubicin
Experimental: as §2
as §3, with “Mass.). […]” for “Mass.).”

MYC-UPF1-FLAG WT, Q92900 = target: T1, MYC-UPF1-FLAG WT, Q92900
T1 chain: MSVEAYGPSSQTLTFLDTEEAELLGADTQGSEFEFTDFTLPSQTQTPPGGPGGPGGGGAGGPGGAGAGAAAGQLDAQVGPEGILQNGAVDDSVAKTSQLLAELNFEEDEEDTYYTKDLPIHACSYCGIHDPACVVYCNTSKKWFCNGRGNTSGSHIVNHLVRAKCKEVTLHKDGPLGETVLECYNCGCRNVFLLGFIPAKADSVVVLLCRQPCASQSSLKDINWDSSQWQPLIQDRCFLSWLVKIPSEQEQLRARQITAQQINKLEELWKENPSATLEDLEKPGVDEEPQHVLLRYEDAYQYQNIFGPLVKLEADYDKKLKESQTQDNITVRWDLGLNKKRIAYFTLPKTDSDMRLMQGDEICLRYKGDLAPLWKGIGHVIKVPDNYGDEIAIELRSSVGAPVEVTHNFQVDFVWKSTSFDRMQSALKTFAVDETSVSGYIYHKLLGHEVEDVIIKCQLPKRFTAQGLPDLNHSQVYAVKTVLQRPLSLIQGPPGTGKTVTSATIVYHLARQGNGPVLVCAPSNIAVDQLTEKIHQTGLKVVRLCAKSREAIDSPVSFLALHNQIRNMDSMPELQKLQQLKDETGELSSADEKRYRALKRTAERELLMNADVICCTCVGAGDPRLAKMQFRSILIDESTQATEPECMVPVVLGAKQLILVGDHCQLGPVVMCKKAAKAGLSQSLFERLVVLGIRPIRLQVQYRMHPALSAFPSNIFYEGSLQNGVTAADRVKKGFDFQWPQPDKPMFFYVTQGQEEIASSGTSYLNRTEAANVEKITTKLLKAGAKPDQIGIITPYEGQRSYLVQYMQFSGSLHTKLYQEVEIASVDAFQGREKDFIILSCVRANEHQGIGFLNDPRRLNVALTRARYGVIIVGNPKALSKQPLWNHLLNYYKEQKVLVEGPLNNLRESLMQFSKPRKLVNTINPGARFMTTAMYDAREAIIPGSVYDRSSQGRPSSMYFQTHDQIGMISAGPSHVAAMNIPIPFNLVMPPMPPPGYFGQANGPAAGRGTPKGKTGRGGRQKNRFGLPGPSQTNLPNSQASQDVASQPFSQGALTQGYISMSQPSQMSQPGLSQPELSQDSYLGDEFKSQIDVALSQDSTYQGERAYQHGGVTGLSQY

## Z-DEVD-fmk
caspases
  level of UPF1 CP after caspase inhibitor: nearly undetectable

## Z-VAD-fmk
caspases
  level of UPF1 CP after caspase inhibitor: nearly undetectable

## COc1cc([C@@H]2c3cc4c(cc3[C@@H](O[C@@H]3O[C@@H]5CO[C@@H](C)O[C@H]5[C@H](O)[C@H]3O)[C@H]3COC(=O)[C@H]23)OCO4)cc(OC)c1O [ETP, etoposide]
UPF1 [1]; HeLa, ETP 44 μM 6 h
  UPF1 CP generation: induced generation of a UPF1 CP before full induction of cleaved initiator caspase 9 (CASP9) and cleaved executioner CASP3
UPF1 [2]
  UPF1 CP generation: generated a UPF1 CP prior to maximal CASP3 cleavage

## C[C@@H]1C[C@@H]([C@H](O)CC2CC(=O)NC(=O)C2)C(=O)[C@@H](C)C1 [CHX, cycloheximide]
UPF1 [1]; HeLa expressing UPF1 WT, D27N or D75N, 300 μg/mL CHX, anti-FLAG immunoblot
  UPF1 CP level relative to uncleaved UPF1: about one-third the level of uncleaved UPF1
UPF1 [3]
  UPF1 CP generation: Generation of the UPF1 CP prior to full CASP9 and CASP3 cleavage
UPF1 [2]
  UPF1 CP generation: generated a UPF1 CP prior to maximal CASP3 cleavage

## CN[C@@H]1C[C@H]2O[C@@](C)([C@@H]1OC)n1c3ccccc3c3c4c(c5c6ccccc6n2c5c31)C(=O)NC4 [staurosporine]
UPF1 [3]
  UPF1 CP generation: yielded two UPF1 CPs, prior to full cleavage of CASP9 and CASP3
UPF1 [4]
  UPF1 CP generation: yielded a UPF1 CP prior to maximal cleavage of CASP3 or PARP
UPF1 [5]
  UPF1 CP generation: led to UPF1 CP production
UPF1 [6]
  UPF1 CP generation: led to UPF1 CP production
UPF1 [7]
  UPF1 CP generation: led to UPF1 CP production
UPF1 [8]
  UPF1 CP generation: yielded a UPF1 CP

## TNF-α
UPF1 [9]
  UPF1 CP generation: led to generation of the UPF1 CP prior to maximal PARP cleavage

B1: Active recombinant Caspase 7 (protein)
chain: AKPDRSSFVPSLFSKKKKNVTMRSIKTTRDRVPTYQYNMNFEKLGKCIIINNKNFDKVTGMGVRNGTDKDAEALFKCFRSLGFDVIVYNDCSCAKMQDLLKKASEEDHTNAACFACILLSHGEENVIYGKDGVTPIKDLTAHFRGDRCKTLLEKPKLFFIQACRGTELDDGIQADSGPINDTDANPRYKIPVEADFLFAYSTVPGYYSWRSPGRGSWFVQALCSILEEHGKDLEIMQILTRVNDRVARHFESQSDDPHFHEKKQIPCVVSMLTKELYFSQ
MYC-UPF1-FLAG WT, Q92900
  in vitro caspase cleavage, western blot: CASP3 and CASP7 cleaved MYC-UPF1-FLAG WT

B2: Active recombinant Caspase 3 (protein)
chain: SGISLDNSYKMDYPEMGLCIIINNKNFHKSTGMTSRSGTDVDAANLRETFRNLKYEVRNKNDLTREEIVELMRDVSKEDHSKRSSFVCVLLSHGEEGIIFGTNGPVDLKKITNFFRGDRCRSLTGKPKLFIIQACRGTELDCGIETDSGVDDDMACHKIPVEADFLYAYSTAPGYYSWRNSKDGSWFIQSLCAMLKQYADKLEFMHILTRVNRKVATEFESFSFDATFHAKKQIPCIVSMLTKELYFYH
MYC-UPF1-FLAG WT, Q92900
  in vitro caspase cleavage, western blot: CASP3 and CASP7 cleaved MYC-UPF1-FLAG WT
